Measured values reported in ChEMBL document CHEMBL3885861, “Open TG-GATES”.

Species: Rattus norvegicus
Assay: Open TG-GATES - Regimen: Single
Format: toxicity, organism-based, Sprague-Dawley
Parameters: regimen Single, gender Male, age 6 weeks
Settings: in vivo, po, 0 mg/kg, route gavage, dose level Control; for APTT / Bas / Eos / Fbg / Hb / Ht / Lym / MCH / MCHC / MCV / Mono / Neu / PT / Plat / RBC / Ret / WBC: tissue Blood; for KIDNEY_L / KIDNEY_R / KIDNEY_TOTAL: tissue Kidney; for LIVER: tissue Liver; for A/G / ALP / ALT / AST / BUN / CRE / Ca / Cl / DBIL / GLC / IP / K / LDH / Na / PL / RALB / TBIL / TC / TG / TP / gamma-GTP: tissue Plasma

CC(C)C(=O)Nc1ccc([N+](=O)[O-])c(C(F)(F)F)c1 [FLUTAMIDE]
TERMINAL_BW (3 h): 211.8 g
APTT (3 h): 18.5 s
Bas (3 h): 0%
Eos (3 h): 1%
Fbg (3 h): 211.2 mg/dL
Hb (3 h): 13.4 g/dL
Ht (3 h): 39%
Lym (3 h): 77%
MCH (3 h): 22.2 pg
MCHC (3 h): 34.4%
MCV (3 h): 64.5 fL
Mono (3 h): 3.6%
Neu (3 h): 17.4%
PT (3 h): 12.7 s
Plat (3 h): 126.5 x10_4/uL
RBC (3 h): 604.2 x10_4/ul
Ret (3 h): 8.3%
WBC (3 h): 99.3 x10_2/uL
KIDNEY_L (3 h): 1 g
KIDNEY_R (3 h): 1 g
KIDNEY_TOTAL (3 h): 1.9 g
LIVER (3 h): 10 g
A/G (3 h): 1.7
ALP (3 h): 1054 IU/L
ALT (3 h): 39.4 IU/L
AST (3 h): 69.6 IU/L
BUN (3 h): 10.8 mg/dL
CRE (3 h): 0.3 mg/dL
Ca (3 h): 11 mg/dL
Cl (3 h): 103.2 meq/L
DBIL (3 h): 0.3 mg/dL
GLC (3 h): 193.4 mg/dL
IP (3 h): 9.1 mg/dL
K (3 h): 3.9 meq/L
LDH (3 h): 165.4 IU/L
Na (3 h): 140 meq/L
PL (3 h): 176 mg/dL
RALB (3 h): 3.5 g/dL
TBIL (3 h): 0.4 mg/dL
TC (3 h): 83.2 mg/dL
TG (3 h): 186 mg/dL
TP (3 h): 5.5 g/dL
gamma-GTP (3 h): 1.4 IU/L
TERMINAL_BW (6 h): 207.5 g
APTT (6 h): 18.8 s
Bas (6 h): 0%
Eos (6 h): 0.6%
Fbg (6 h): 228 mg/dL
Hb (6 h): 13.7 g/dL
Ht (6 h): 39.6%
Lym (6 h): 80%
MCH (6 h): 21.9 pg
MCHC (6 h): 34.5%
MCV (6 h): 63.3 fL
Mono (6 h): 3.2%
Neu (6 h): 15%
PT (6 h): 12.5 s
Plat (6 h): 115.8 x10_4/uL
RBC (6 h): 625.8 x10_4/ul
Ret (6 h): 7.2%
WBC (6 h): 108.6 x10_2/uL
KIDNEY_L (6 h): 0.9 g
KIDNEY_R (6 h): 0.9 g
KIDNEY_TOTAL (6 h): 1.9 g
LIVER (6 h): 9 g
A/G (6 h): 1.8
ALP (6 h): 1030.8 IU/L
ALT (6 h): 37.6 IU/L
AST (6 h): 65.8 IU/L
BUN (6 h): 8.4 mg/dL
CRE (6 h): 0.3 mg/dL
Ca (6 h): 10.7 mg/dL
Cl (6 h): 102.6 meq/L
DBIL (6 h): 0.1 mg/dL
GLC (6 h): 193.6 mg/dL
IP (6 h): 9.5 mg/dL
K (6 h): 4.2 meq/L
LDH (6 h): 140.8 IU/L
Na (6 h): 139.8 meq/L
PL (6 h): 157 mg/dL
RALB (6 h): 3.5 g/dL
TBIL (6 h): 0.2 mg/dL
TC (6 h): 89 mg/dL
TG (6 h): 51.8 mg/dL
TP (6 h): 5.6 g/dL
gamma-GTP (6 h): 1 IU/L
TERMINAL_BW (9 h): 204.9 g
APTT (9 h): 18.4 s
Bas (9 h): 0%
Eos (9 h): 1%
Fbg (9 h): 209.2 mg/dL
Hb (9 h): 13.4 g/dL
Ht (9 h): 39.4%
Lym (9 h): 76.8%
MCH (9 h): 21.6 pg
MCHC (9 h): 34.2%
MCV (9 h): 63.3 fL
Mono (9 h): 2.8%
Neu (9 h): 18.6%
PT (9 h): 13.2 s
Plat (9 h): 128.5 x10_4/uL
RBC (9 h): 621.8 x10_4/ul
Ret (9 h): 7.7%
WBC (9 h): 92.7 x10_2/uL
KIDNEY_L (9 h): 1 g
KIDNEY_R (9 h): 1 g
KIDNEY_TOTAL (9 h): 1.9 g
LIVER (9 h): 8.3 g
A/G (9 h): 1.6
ALP (9 h): 866.2 IU/L
ALT (9 h): 32.6 IU/L
AST (9 h): 63.4 IU/L
BUN (9 h): 10.4 mg/dL
CRE (9 h): 0.3 mg/dL
Ca (9 h): 10.1 mg/dL
Cl (9 h): 103.4 meq/L
DBIL (9 h): 0.072 mg/dL
GLC (9 h): 204.6 mg/dL
IP (9 h): 10.8 mg/dL
K (9 h): 3.7 meq/L
LDH (9 h): 146.2 IU/L
Na (9 h): 141.4 meq/L
PL (9 h): 126.8 mg/dL
RALB (9 h): 3.3 g/dL
TBIL (9 h): 0.1 mg/dL
TC (9 h): 68.6 mg/dL
TG (9 h): 43 mg/dL
TP (9 h): 5.3 g/dL
gamma-GTP (9 h): 0.8 IU/L
TERMINAL_BW (24 h): 219.3 g
APTT (24 h): 17.7 s
Bas (24 h): 0%
Eos (24 h): 1%
Fbg (24 h): 206.4 mg/dL
Hb (24 h): 13.4 g/dL
Ht (24 h): 40.4%
Lym (24 h): 82.2%
MCH (24 h): 21.8 pg
MCHC (24 h): 33.3%
MCV (24 h): 65.7 fL
Mono (24 h): 3.2%
Neu (24 h): 13.4%
PT (24 h): 12.6 s
Plat (24 h): 126.3 x10_4/uL
RBC (24 h): 615.6 x10_4/ul
Ret (24 h): 7.7%
WBC (24 h): 97.9 x10_2/uL
KIDNEY_L (24 h): 0.9 g
KIDNEY_R (24 h): 1 g
KIDNEY_TOTAL (24 h): 1.9 g
LIVER (24 h): 10.2 g
A/G (24 h): 1.7
ALP (24 h): 878.8 IU/L
ALT (24 h): 39.8 IU/L
AST (24 h): 68 IU/L
BUN (24 h): 14.2 mg/dL
CRE (24 h): 0.4 mg/dL
Ca (24 h): 10.3 mg/dL
Cl (24 h): 103.2 meq/L
DBIL (24 h): 0.084 mg/dL
GLC (24 h): 212 mg/dL
IP (24 h): 7.1 mg/dL
K (24 h): 3.7 meq/L
LDH (24 h): 136.2 IU/L
Na (24 h): 140.6 meq/L
PL (24 h): 135.2 mg/dL
RALB (24 h): 3.3 g/dL
TBIL (24 h): 0.1 mg/dL
TC (24 h): 77.4 mg/dL
TG (24 h): 62.6 mg/dL
TP (24 h): 5.4 g/dL
gamma-GTP (24 h): 0.8 IU/L
